Results on three compounds are retold here after EP0297435A2, “Aminopropanol derivatives of 3-(3'-hydroxyphenyl)-1-propanone, process for their preparation and medicines containing these compounds” (Helopharm W. Petrik GmbH & Co.KG., priority 1987, dated 1989).

The nature of series [1]: Acute toxicity LD50 in rats, i.v. To be noted: rat, in vivo, iv; Ratte (i.v.); read-out: LD₅₀.
Series [2] has as its system Meerschweinchen-Papillarmuskel. Put plainly: Effect on contraction force of the heart, guinea pig papillary muscle. The following applies: contraction force (negative inotropy), read-out: C20 CF. It counts as cell-based. From the text: Die Wirkung auf die Kontraktionskraft des Herzens wurde am Meerschweinchen-Papillarmuskel untersucht. Hämodynamische Studien wurden bei gesunden, wie auch akut infarzierten Hunden durchgeführt.

In series [3] the test system is Purkinje-Fasern aus Hundeherzen. Put plainly: Electrophysiological studies on Purkinje fibres from dog hearts (Vmax). Type of series: cell-based, Hund. The following applies: for IC20: Purkinje-Fasern aus Hundeherzen, read-out: C20 Vmax; for Prematurity Faktor Vmax: Vorzeitigkeitsindex, activity on premature extrasystoles; for Rate-Faktor von Vmax: specifically stronger activity at higher frequencies. From the text: Die antiarrhythmische Wirksamkeit der erfindungsgemäßen Verbindungen wurde sowohl anhand von elektrophysiologischen Studien an Purkinje-Fasern aus Hundeherzen sowie mit Hilfe von Ouabaininduzierten ventrikulären Tachykardien bei Hunden bestimmt. […]
Als zusätzliches Kriterium wurde der Vorzeitigkeitsindex (Prematurity-Faktor) bestimmt, der die erwünschte Wirksamkeit der erfindungsgemäßen Verbindungen bei vorzeitigen Extrasystolen charakterisiert.

Series [4] in a line: Acute toxicity LD50 in mice, i.v. The following applies: mouse, in vivo, iv; Maus (i.v.); read-out: LD₅₀.

Turning to `CCC(C)(C)NCC(O)COc1cc(CCC(=O)c2ccc(C)cc2)ccc1OC.Cl` (centres unmarked) [Beispiel 36, 1-(4-Methylphenyl)-3-[3′-(2-hydroxy-3-tert.-pentylaminopropoxy)-4′-methoxyphenyl]-1-propanon-hydrochlorid], the LD50 in series [1] is 10 mg/kg; in series [4], 18 mg/kg. In addition, the IC20 in series [2] came out at 8 µM; in series [3] it was 2.8 µM. In addition, the “Prematurity Faktor Vmax” value in series [3] is on record as 0,99. Moreover, the “Rate-Faktor von Vmax” value in series [3] is given as 1,41.
As to `CCC(C)(C)NCC(O)COc1cc(CCC(=O)c2cc(OC)c(OC)c(OC)c2)ccc1OC.Cl` (centres unmarked) [Beispiel 28, 1-(3,4,5-Trimethoxyphenyl)-3-[3′-(2-hydroxy-3-tert.-pentylaminopropoxy)-4′-methoxyphenyl]-1-propanon-hydrochlorid], the values for the LD50 in series [1] and in series [4] were 11 mg/kg and 16 mg/kg, respectively. Also, the values for the IC20 in series [2] and in series [3] were 6 µM and 1.4 µM, respectively. Also, the “Prematurity Faktor Vmax” value in series [3] was 1,01.
As to `COc1ccc(CCC(=O)c2cc(OC)c(OC)c(OC)c2)cc1OCC(O)CNC(C)(C)C.Cl` (centres unmarked) [Beispiel 31, 1-(3,4,5-Trimethoxyphenyl)-3-[3′-(2-hydroxy-3-tert.-butylaminopropoxy)-4′-methoxyphenyl]-1-propanon-hydrochlorid], the LD50 in series [1] is 13 mg/kg. Further, the IC20 in series [2] stood at 5 µM. Also, in series [3], the IC20 was 1.4 µM, the “Prematurity Faktor Vmax” value is recorded as 0,97 and the “Rate-Faktor von Vmax” value is recorded as 1,15. Besides, in series [4], the LD50 came to 18 mg/kg.
